# T1: CtXR (Yamadazyma tenuis, UniProt O74237)
# T1 construct: gene XYL1; xylose reductase of C. tenuis CBS4435; preparation described only in Additional file 3
# T1 sequence (O74237 1-322): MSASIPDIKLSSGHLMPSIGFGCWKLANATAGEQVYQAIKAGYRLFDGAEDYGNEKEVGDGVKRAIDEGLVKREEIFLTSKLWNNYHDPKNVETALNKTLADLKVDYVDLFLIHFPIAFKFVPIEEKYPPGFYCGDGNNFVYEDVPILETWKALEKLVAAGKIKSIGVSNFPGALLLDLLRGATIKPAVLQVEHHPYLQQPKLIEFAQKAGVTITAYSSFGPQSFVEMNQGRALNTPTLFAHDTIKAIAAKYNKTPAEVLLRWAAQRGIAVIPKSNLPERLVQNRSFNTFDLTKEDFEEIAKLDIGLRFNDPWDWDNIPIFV
# T2: CtG6PDH (Yamadazyma tenuis, UniProt G3B8L7)
# T2 construct: gene CANTEDRAFT_115211; native enzyme, probably in cell-free extract of CBS4435 (details only in Additional file 3)
# T2 sequence (G3B8L7 1-502): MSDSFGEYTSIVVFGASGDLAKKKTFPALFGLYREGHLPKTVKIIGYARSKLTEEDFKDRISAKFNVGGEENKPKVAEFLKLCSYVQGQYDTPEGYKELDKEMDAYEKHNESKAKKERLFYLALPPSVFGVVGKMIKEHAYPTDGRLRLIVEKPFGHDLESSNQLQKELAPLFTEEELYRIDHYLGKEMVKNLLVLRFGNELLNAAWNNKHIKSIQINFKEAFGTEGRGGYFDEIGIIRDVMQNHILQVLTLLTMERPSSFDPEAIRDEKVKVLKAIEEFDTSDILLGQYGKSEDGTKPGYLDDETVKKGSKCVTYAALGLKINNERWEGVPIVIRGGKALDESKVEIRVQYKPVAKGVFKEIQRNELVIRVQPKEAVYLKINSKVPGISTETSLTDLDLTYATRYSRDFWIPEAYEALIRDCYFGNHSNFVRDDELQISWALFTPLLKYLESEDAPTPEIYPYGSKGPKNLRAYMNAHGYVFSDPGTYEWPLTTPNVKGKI
# Assays:
# CtXR [1] = molecular target: T1, CtXR; experiment: steady-state kinetics; format: biochemical
# Text: (§1) steady-state kinetics on CtXR
# CtXR [2] = molecular target: T1, CtXR; experiment: ligand-binding analysis by fluorescence spectroscopy; conditions: read-out: NADP(H) (R 2) / PP (R 5), UG (R 9), LG (R 10)
# Text: ligand-binding analysis by fluorescence spectroscopy on CtXR
# CtG6PDH = molecular target: T2, CtG6PDH; experiment: enzyme kinetics, product inhibition; format: cell-based; conditions: competitive product inhibition; read-out: K i,NADPH
# Text: enzyme kinetics, product inhibition on CtG6PDH
# steady-state kinetics [3] = substrate: NC(=O)c1ccc[n+]([C@@H]2O[C@H](COP(=O)(O)OP(=O)(O)OC[C@H]3O[C@@H](n4cnc5c(N)ncnc54)[C@H](O)[C@@H]3O)[C@@H](O)[C@H]2O)c1; experiment: steady-state kinetics; format: biochemical, Yamadazyma tenuis; conditions: xylitol oxidation; pH 7.5; 25.0 °C; varied: cofactor
# Text: as §1
# steady-state kinetics [4] = substrate: NC(=O)C1=CN([C@@H]2O[C@H](COP(=O)(O)OP(=O)(O)OC[C@H]3O[C@@H](n4cnc5c(N)ncnc54)[C@H](OP(=O)(O)O)[C@@H]3O)[C@@H](O)[C@H]2O)C=CC1; experiment: steady-state kinetics; format: biochemical, Yamadazyma tenuis; conditions: xylose reduction; pH 7.5; 25.0 °C; varied: cofactor
# Text: as §1
# steady-state kinetics [5] = substrate: NC(=O)c1ccc[n+]([C@@H]2O[C@H](COP(=O)(O)OP(=O)(O)OC[C@H]3O[C@@H](n4cnc5c(N)ncnc54)[C@H](OP(=O)(O)O)[C@@H]3O)[C@@H](O)[C@H]2O)c1; experiment: steady-state kinetics; format: biochemical, Yamadazyma tenuis; conditions: xylitol oxidation; pH 7.5; 25.0 °C; varied: cofactor
# Text: as §1
# steady-state kinetics [6] = substrate: NC(=O)C1=CN([C@@H]2O[C@H](COP(=O)(O)OP(=O)(O)OC[C@H]3O[C@@H](n4cnc5c(N)ncnc54)[C@H](O)[C@@H]3O)[C@@H](O)[C@H]2O)C=CC1; experiment: steady-state kinetics; format: biochemical, Yamadazyma tenuis; conditions: xylose reduction; pH 7.5; 25.0 °C; varied: cofactor
# Text: as §1
molecule,measurement,setting,value
NC(=O)C1=CN([C@@H]2O[C@H](COP(=O)(O)OP(=O)(O)OC[C@H]3O[C@@H](n4cnc5c(N)ncnc54)[C@H](O)[C@@H]3O)[C@@H](O)[C@H]2O)C=CC1 [NADH],NAD(H) (R 1),"CtXR [1]; dissociation constant of NADH in the rate equation, xylose reduction",0.18 ± 0.04 mM
NC(=O)c1ccc[n+]([C@@H]2O[C@H](COP(=O)(O)OP(=O)(O)OC[C@H]3O[C@@H](n4cnc5c(N)ncnc54)[C@H](O)[C@@H]3O)[C@@H](O)[C@H]2O)c1 [NAD^+],Ki,CtXR [1]; read-out: NAD(H) (R 1),344 ± 30 µM
NC(=O)c1ccc[n+]([C@@H]2O[C@H](COP(=O)(O)OP(=O)(O)OC[C@H]3O[C@@H](n4cnc5c(N)ncnc54)[C@H](OP(=O)(O)O)[C@@H]3O)[C@@H](O)[C@H]2O)c1 [NADP^+],Kd,CtXR [2],5.9 ± 0.4 µM
NC(=O)C1=CN([C@@H]2O[C@H](COP(=O)(O)OP(=O)(O)OC[C@H]3O[C@@H](n4cnc5c(N)ncnc54)[C@H](OP(=O)(O)O)[C@@H]3O)[C@@H](O)[C@H]2O)C=CC1 [NADPH],Ki,CtG6PDH,200 µM
"CtXR (Yamadazyma tenuis) (protein, xylose reductase of C. tenuis CBS4435; preparation described only in Additional file 3) MSASIPDIKLSSGHLMPSIGFGCWKLANATAGEQVYQAIKAGYRLFDGAEDYGNEKEVGDGVKRAIDEGLVKREEIFLTSKLWNNYHDPKNVETALNKTLADLKVDYVDLFLIHFPIAFKFVPIEEKYPPGFYCGDGNNFVYEDVPILETWKALEKLVAAGKIKSIGVSNFPGALLLDLLRGATIKPAVLQVEHHPYLQQPKLIEFAQKAGVTITAYSSFGPQSFVEMNQGRALNTPTLFAHDTIKAIAAKYNKTPAEVLLRWAAQRGIAVIPKSNLPERLVQNRSFNTFDLTKEDFEEIAKLDIGLRFNDPWDWDNIPIFV",Km,steady-state kinetics [3],0.019 ± 0.005 mM
same,Km,steady-state kinetics [4],5 ± 2 µM
same,Km,steady-state kinetics [5],8 ± 1 µM
same,Km,steady-state kinetics [6],0.04 ± 0.01 mM

# Reference: publication PMC4582818, “Identification of novel metabolic interactions controlling carbon flux from xylose to ethanol in natural and recombinant yeasts” (Biotechnology for Biofuels, 2015)
